Here are results for 12 compounds from patent US9434727B2, “Substituted 4-phenylpiperidines, their preparation and use” (THE TRUSTEES OF COLUMBIA UNIVERSITY IN THE CITY OF NEW YORK, priority 2014, dated 2016).

Structures are written as SMILES.

One assay deals with RBP4-TTR interaction (Homo sapiens (Human), UniProt P02753). The assay is described as follows: TR-FRET (HTRF) assay for retinol-induced RBP4-TTR interaction. The format is biochemical. The conditions noted are these: in the presence of 1 μM retinol; read-out: HTRF assay for antagonists of RBP4-TTR interaction: IC50. An excerpt:
TR-FRET assay for retinol-induced RBP4-TTR interaction Binding of a desired RBP4 antagonist displaces retinol and induces hindrance for RBP4-TTR interaction resulting in the decreased FRET signal (FIG. 7). Bacterially expressed MBP-RBP4 and untagged TTR were used in this assay. […] Following cell lysis, recombinant RBP4 was purified from the soluble fraction using the ACTA FPLC system (GE Healthcare) equipped with the 5-ml the MBP Trap HP column. Human untagged TTR was purchased from Calbiochem. Untagged TTR was labeled directly with Eu^3+ Cryptate-NHS using the HTRF Cryptate Labeling kit from CisBio following the manufacturer's recommendations. HTRF assay was performed in white low volume 384 well plates (Greiner-Bio) in a final assay volume of 16 μl per well. The reaction buffer contained 10 mM Tris-HCl pH 7.5, 1 mM DTT, 0.05% NP-40, 0.05% Prionex, 6% glycerol, and 400 mM KF. […] Titration of test compounds in this assay was conducted in the presence of 1 μM retinol. All reactions were assembled in the dark under dim red light and incubated overnight at +4° C. wrapped in aluminum foil. TR-FRET signal was measured in the SpectraMax M5e Multimode Plate Reader (Molecular Device). […] The TR-FRET signal was expressed as the ratio of fluorescence intensity: Flu665/Flu620×10,000.
A general note: Time-resolved FRET reads energy transfer from a long-lived donor to a nearby acceptor.

The next assay has as its target RBP4 (Homo sapiens (Human), UniProt P02753). In words: Scintillation proximity (SPA) RBP4 binding assay. The settings on record: 10 nM 3H-Retinol, 50 nM biotinylated RBP4. As to the method: Scintillation Proximity RBP4 Binding Assay
Untagged human RBP4 purified from urine of tubular proteinuria patients was purchased from Fitzgerald Industries International. It was biotinylated using the EZ-Link Sulfo-NHS-LC-Biotinylation kit from Pierce following the manufacturer's recommendations. Binding experiments were performed in 96-well plates (OptiPlate, PerkinElmer) in a final assay volume of 100 μl per well in SPA buffer (IX PBS, pH 7.4, 1 mM EDTA, 0.1% BSA, 0.5% CHAPS). The reaction mix contained 10 nM ^3H-Retinol (48.7 Ci/mmol; PerkinElmer), 0.3 mg/well Streptavidin-PVT beads, 50 nM biotinylated RBP4 and a test compound. Nonspecific binding was determined in the presence of 20 μM of unlabeled retinol. The reaction mix was assembled in the dark under dim red light. The plates were sealed with clear tape (TopSeal-A: 96-well microplate, PerkinElmer), wrapped in the aluminum foil, and allowed to equilibrate 6 hours at room temperature followed by overnight incubation at +4° C. Radiocounts were measured using a TopCount NXT counter (Packard Instrument Company).

By IC50 is commonly meant the point on the concentration scale where inhibition reaches its midpoint. For the compound `CC(=O)N1CCc2c(C(=O)N3CCC(c4cc(F)cc(F)c4C(F)(F)F)CC3)n[nH]c2C1` [Compound 131, 1-(3-(4-(3,5-Difluoro-2-(trifluoromethyl)phenyl)piperidine-1-carbonyl)-4,5-dihydro-1H-pyrazolo[3,4-c]pyridin-6(7H)-yl)ethanone], the half-maximal inhibitory concentration (IC50) at RBP4-TTR interaction turned out to be 10.9 nM; at RBP4 it was 6.36 nM.
For `N#Cc1ccc2nnc(C(=O)N3CCC(c4cc(F)cc(F)c4C(F)(F)F)CC3)n2c1` [Compound 132, 3-(4-(3,5-Difluoro-2-(trifluoromethyl)phenyl)piperidine-1-carbonyl)-[1,2,4]triazolo[4,3-a]pyridine-6-carbonitrile], the results for the concentration for half-maximal inhibition (IC50) at RBP4-TTR interaction and on RBP4 were 10.5 nM and 6.75 nM, respectively.
As for `COC(=O)N1CCc2[nH]nc(C(=O)N3CCC(c4cc(F)cc(F)c4C(F)(F)F)CC3)c2C1` [Compound 138, Methyl 3-(4-(3,5-difluoro-2-(trifluoro-methyl)phenyl)piperidine-1-carbonyl)-6,7-dihydro-1H-pyrazolo[4,3-c]pyridine-5(4H)-carboxylate], the results for the IC50 at RBP4-TTR interaction and on RBP4 were 24.4 nM and 10.1 nM, respectively.
For `CC(=O)N1CCc2c(C(=O)N3CCC(c4cc(F)ccc4C(F)(F)F)CC3)n[nH]c2C1` [Compound 140, 1-(3-(4-(5-fluoro-2-(trifluoromethyl)phenyl)piperidine-1-carbonyl)-4,5-dihydro-1H-pyrazolo[3,4-c]pyridin-6(7H)-yl)ethanone] the same measures were 21.9 nM and 9.28 nM.
As for `CC(=O)N1CCc2c(C(=O)N3CCC(c4cc(F)ccc4Cl)CC3)n[nH]c2C1` [Compound 143, 1-(3-(4-(2-chloro-5-fluorophenyl)piperidine-1-carbonyl)-4,5-dihydro-1H-pyrazolo[3,4-c]pyridin-6(7H)-yl)ethanone], the results for the IC50 at RBP4-TTR interaction and on RBP4 were 52.3 nM and 8.83 nM, respectively.
With `CS(=O)(=O)N1CCc2[nH]nc(C(=O)N3CCC(c4cc(F)ccc4Cl)CC3)c2C1` [Compound 144, (4-(2-chloro-5-fluorophenyl)piperidin-1-yl)(5-(methylsulfonyl)-4,5,6,7-tetrahydro-1H-pyrazolo[4,3-c]pyridin-3-yl)methanone], the IC50 on RBP4-TTR interaction is 70.3 nM; at RBP4 it was 6.17 nM.
The matching figures for `N#Cc1ccc2nnc(C(=O)N3CCC(c4cc(F)ccc4Cl)CC3)n2c1` [Compound 145, 3-(4-(2-Chloro-5-fluorophenyl)piperidine-1-carbonyl)-[1,2,4]triazolo[4,3-a]pyridine-6-carbonitrile]: 67 nM and 7.57 nM.
For `O=C(c1n[nH]c2c1CCN(CC1CC1)C2)N1CCC(c2cccc(F)c2Cl)CC1` [Compound 146, (4-(2-chloro-3-(fluorophenyl)piperidin-1-yl)(6-cyclopropylmethyl)-4,5,6,7-tetrahydro-1H-pyrazolo[3,4-c]pyridine-3-yl)methanone] the same measures were 36.5 nM and 15.9 nM.
As to `COC(=O)N1CCc2c(C(=O)N3CCC(c4cccc(F)c4Cl)CC3)n[nH]c2C1` [Compound 147, Methyl 3-(4-(2-chloro-3-fluorophenyl)piperidine-1-carbonyl)-4,5-dihydro-1H-pyrazolo[3,4-c]pyridine-6(7H)-carboxylate], the IC50 worked out at 25.5 nM on RBP4-TTR interaction and 17.1 nM on RBP4.
For `CC(=O)N1CCc2c(C(=O)N3CCC(c4cccc(F)c4Cl)CC3)n[nH]c2C1` [Compound 150, 1-(3-(4-(2-chloro-3-fluorophenyl)piperidine-1-carbonyl)-4,5-dihydro-1H-pyrazolo[3,4-c]pyridin-6(7H)-yl)ethanone] the same measures were 23.7 nM and 4.84 nM.
On to `CS(=O)(=O)N1CCc2[nH]nc(C(=O)N3CCC(c4cccc(F)c4Cl)CC3)c2C1` [Compound 151], for which the values for the half-maximal inhibitory concentration (IC50) at RBP4-TTR interaction and at RBP4 were 67.7 nM and 10.3 nM, respectively.
Consider `N#Cc1ccc2nnc(C(=O)N3CCC(c4cccc(F)c4Cl)CC3)n2c1` [Compound 152, 3-(4-(2-chloro-3-fluorophenyl)piperidine-1-carbonyl)-[1,2,4]triazolo[4,3-a]pyridine-6-carbonitrile], for which the IC50 is 27.8 nM on RBP4-TTR interaction and 3.1 nM at RBP4.
